# Conditions: buffer; pH 7.4; 200.0 µM
row,Structure (SMILES),solubility kinetic
1,Cc1nc(N)c(C#N)c(-c2cccnc2)c1-c1ccccc1,0.6 µg/mL
2,Cc1cc(N2CCN(C)CC2)nc2ccccc12,32.9 µg/mL
3,COc1cccc2cc(-c3nc4ccccc4o3)c(=O)oc12,1.7 µg/mL
4,Cc1ccc(C(=O)Nn2cnc3ccccc3c2=O)cc1C,> 44 µg/mL
5,N#Cc1ccc(-c2ccc(OCC(O)CN3CCCCC3)cc2)cc1 (centres undefined),42.4 µg/mL
6,O=c1c2ccccc2nc2oc3ccccc3n12,1.1 µg/mL
7,Clc1ccc(CSC(Cn2ccnc2)c2ccc(Cl)cc2Cl)cc1.O=[N+]([O-])O (centres undefined),48.7 µg/mL
8,CCc1ccc2[nH]c(C(=O)Nc3ccc4c(c3)OCO4)cc2c1,0.8 µg/mL
9,Cn1c(SCC(=O)NC2CC2)nnc1-c1ccccc1,> 43.3 µg/mL
10,CC(=O)N1CCN(C23CC4CC(CC(C4)C2)C3)CC1,> 39.4 µg/mL
11,Cc1ccc(NC(=O)c2ccccn2)c(Br)c1,< 0.3 µg/mL
12,COc1cccc(CN(C)C(=O)C23CC4CC(CC(C4)C2)C3)c1,19.4 µg/mL
13,CCOc1ccc(NC(=O)NC(C)c2ccc3c(c2)OCO3)cc1 (centres undefined),1.9 µg/mL
14,COC(=O)c1cccc(NC(=O)CSc2nnc(C)n2C)c1,> 48.1 µg/mL
15,c1ccc(-c2cc3ccccc3[nH]2)cc1,0.7 µg/mL
16,CC(C)NC(=O)c1ccc(CSCc2ccccc2Cl)o1,> 48.6 µg/mL
17,CN1CCN(c2nc3c(c(=O)[nH]2)CCC3)CC1,> 35.1 µg/mL
18,O=C(COC(=O)Cc1ccc([N+](=O)[O-])cc1)NCc1ccc2c(c1)OCO2,55.5 µg/mL
19,COc1ccc(/C=C/C(=O)NCCN2CCOCC2)cc1OC,> 48.1 µg/mL
20,Cc1cc(C)n2nc(SCC(=O)N3CC(C)CC(C)C3)nc2n1 (centres undefined),> 50 µg/mL
21,CCOc1ncccc1C(=O)OCC(=O)N1CCC(C)CC1,> 46 µg/mL
22,COc1ccc(S(=O)(=O)N2CCCCC2C)cc1 (centres undefined),> 40.4 µg/mL
23,COc1ccccc1C(=O)C1CCCN(C(=O)Nc2ccccc2F)C1 (centres undefined),> 53.5 µg/mL
24,Cc1ccc2cc3cc(C(=O)NC4CCCCC4)oc3nc2c1,0.7 µg/mL

row,Structure (SMILES),solubility kinetic
1,CN1CCN(C(=O)C2CCN(S(=O)(=O)c3ccc(F)cc3)CC2)CC1,38.5 µg/mL
2,COc1ccccc1-c1nc(COc2ccc(Cl)cc2Cl)no1,< 0.4 µg/mL
3,O=C(O)CSc1ccnc2cc(Cl)ccc12,> 38.1 µg/mL
4,Cc1cc(C)nc(NC(=O)c2cccs2)n1,> 35 µg/mL
5,Oc1ccccc1CNc1cccc2cccnc12,19.3 µg/mL
6,O=C1CN(C(=O)COC(=O)c2ccc(Cl)c(S(=O)(=O)N3CCCCC3)c2)c2ccccc2N1,4.7 µg/mL
7,Cc1ccc(NC(=O)Nc2ccon2)cc1,> 32.6 µg/mL
8,Cc1ccc2c(c1)N=C(c1ccccc1)CC(C(Cl)Cl)=N2,7.1 µg/mL
9,Cc1nc(SCC(N)=O)c([N+](=O)[O-])[nH]1,> 32.4 µg/mL
10,CC(=O)Nc1ccc(/C=N/N2C(C)CCCC2C)cc1 (centres undefined),> 41 µg/mL
11,CC(=O)Nc1ccc(/C=C/c2noc(-c3ccccc3O)n2)cc1,< 0.2 µg/mL
12,O=CC1=C(N2CCOCC2)/C(=C/c2ccc(Cl)cc2)CC1,32.1 µg/mL
13,CSC(=NCc1ccco1)NC#N,27.8 µg/mL
14,Cc1c(C(=O)NC2CCCCC2C)oc2ccccc12 (centres undefined),1.7 µg/mL
15,O=C(Cc1ccc(Br)cc1)NCCCn1ccnc1,> 48.3 µg/mL
16,CCOC(=O)c1sc(N)c(C#N)c1COC(=O)C1=COCCO1,11.6 µg/mL
17,O=C(O)c1ccccc1Nc1cc(Cl)c2nonc2c1[N+](=O)[O-],43.3 µg/mL
18,COc1ccc(C(=O)Nc2cc(C)on2)c(OC)c1,21.4 µg/mL
19,CC(C)(C)c1ccc(C(=O)NC2CCS(=O)(=O)C2)cc1 (centres undefined),> 44.3 µg/mL
20,COc1ccccc1CNC(=O)CCNS(=O)(=O)/C=C/c1ccc(C)cc1,57.8 µg/mL
21,COc1ccc(NC(=O)C2=CN3CCS(=O)(=O)N=C3C=C2)c(OC)c1,37.8 µg/mL
22,Cc1cccnc1NC(=O)c1ccc(C(=O)c2ccccc2)cc1,42.5 µg/mL
23,O=Cc1ccc2ccc3cccnc3c2n1,> 31.2 µg/mL
24,Br.Fc1cc(Cl)ccc1NC1=NCCCCC1,> 48.2 µg/mL

row,Structure (SMILES),solubility kinetic
1,Oc1ccc2ccccc2c1C=Nc1ccccc1,< 0.5 µg/mL
2,CSc1nsc(SCC(=O)Nc2ccc(C(=O)O)cc2)n1,> 51.2 µg/mL
3,Cc1csc(NC(=O)c2cc(C)on2)n1,> 33.5 µg/mL
4,CCCCC(=O)N1CCN(c2nc3ccc(F)cc3s2)CC1,44.2 µg/mL
5,Nc1cc(=O)[nH]c(SCc2cccc3ccccc23)n1,4 µg/mL
6,COc1ccc(N/N=C(\C#N)C(=N)N2CCOCC2)cc1,> 43.1 µg/mL
7,COc1ccc2c(C(=O)CN3CCSCC3)c[nH]c2c1,36.8 µg/mL
8,CCC(=NCCCn1ccnc1)c1c(O)n(-c2ccccc2)c(=O)[nH]c1=O,> 55.1 µg/mL
9,COc1ccccc1CNC(=O)Cc1c[nH]c2ccccc12,> 44.2 µg/mL
10,O=C(CN1CCS(=O)(=O)CC1)NNC(=O)C1CCCCC1,> 47.6 µg/mL
11,CC1(C)CC(=O)C2=C(C1)OC(N)=C([N+](=O)[O-])C2c1ccc(F)cc1 (centres undefined),> 49.8 µg/mL
12,NC(=O)c1cc[n+](CC(=O)NC(=O)Nc2ccccc2)cc1,30.5 µg/mL
13,Cn1c(SCc2ccccc2)nc2c1c(=O)[nH]c(=O)n2C,7 µg/mL
14,Cc1ccc(C(=O)N2CCN(C(=O)C3CCCO3)CC2)cc1 (centres undefined),> 45.4 µg/mL
15,CCc1ccc(C(=O)Nc2ccc3nc(C)ccc3c2)cc1,< 0.3 µg/mL
16,Cc1cccc(C)c1NC(=O)NC1(C(=O)NCc2ccncc2)CCCCC1,> 57.1 µg/mL
17,COc1ccc2c(=O)c(C(=O)NCCc3ccccc3)c[nH]c2c1,5.2 µg/mL
18,CN1C(C(=O)Nc2ccccn2)=C(O)c2ccccc2S1(=O)=O,> 49.7 µg/mL
19,Cc1ccc2cc(NC(=O)c3ccc(C(C)(C)C)cc3)ccc2n1,< 0.3 µg/mL
20,O=C(CSCc1ccco1)N1CCc2ccccc21,36.9 µg/mL
21,O=C(Nc1cc(C(F)(F)F)ccc1N1CCOCC1)C1CCCO1 (centres undefined),> 51.6 µg/mL
22,Cc1cc(C(=O)N/N=C/c2cn(C)nc2C)c2ccccc2n1,> 46.1 µg/mL
23,Cc1ccc(/C(O)=C/c2nc3cc(C)ccc3oc2=O)cc1,12 µg/mL
24,COc1cc(/C=C/c2onc(C)c2[N+](=O)[O-])cc(OC)c1OC,< 0.3 µg/mL

row,Structure (SMILES),solubility kinetic
1,N#Cc1ccccc1CSc1nc(N)cc(N)n1,36.6 µg/mL
2,CCN(C(=O)CN1C(=O)CN(C)C1=O)c1cccc2ccccc12,> 48.8 µg/mL
3,COc1ccccc1/C=C/C(=O)OCC(=O)Nc1ccc2c(c1)OCO2,3.3 µg/mL
4,Cc1ccc(NS(=O)(=O)c2cccc3nsnc23)cc1[N+](=O)[O-],50.2 µg/mL
5,Cn1c(/C=C/c2ccc(Br)cc2)nc2ccccc2c1=O,< 0.4 µg/mL
6,O=C(CC(Nc1cccc(Cl)c1Cl)C(=O)O)c1ccccc1 (centres undefined),43.2 µg/mL
7,CCOC(=O)C1CCN(C(=O)c2cc3cc(Cl)ccc3[nH]2)CC1,19 µg/mL
8,CSCCC(=O)N1CCN(CC(=O)N2CCCC2)CC1,> 44.9 µg/mL
9,Cc1ccc(S(=O)(=O)Nc2c(C)cc(C)nc2Cl)cc1,> 46.6 µg/mL
10,Cc1cccc(NC(=O)c2ccc3c(c2)CCN3S(C)(=O)=O)c1,37.5 µg/mL
11,COc1ccc(C(=O)NCC(=O)Nc2cccc(S(=O)(=O)N3CCCC3)c2)cc1,60.1 µg/mL
12,COc1cccc(C2(C#N)CCN(C)CC2)c1,> 34.5 µg/mL
13,O=C(COC(=O)/C=C/c1ccc([N+](=O)[O-])cc1)NCc1cccs1,4.2 µg/mL
14,CN(C)/C=C/c1[nH]c(=O)[nH]c(=O)c1[N+](=O)[O-],> 33.9 µg/mL
15,CC(=O)Nc1ccc(Nc2ncnc3ccccc23)cc1,6.5 µg/mL
16,Cc1ccc(CNC(=O)c2c(-c3ccccc3Cl)noc2C)cc1,42.6 µg/mL
17,CS(=O)(=O)c1ccc(-c2csc(-c3cccnc3)n2)cc1,5.6 µg/mL
18,O=C(COC(=O)c1cc(=O)[nH]c2ccccc12)NCc1ccccc1Cl,4.1 µg/mL
19,O=C(Nc1cc(N2CCOCC2)ncn1)NC1(C(F)(F)F)Oc2ccc(Cl)cc2O1 (centres undefined),65.5 µg/mL
20,Cc1ccnc(Cc2ccccc2)n1,18.5 µg/mL
21,CC(=O)Nc1ccc(S(=O)(=O)N(C)CC(=O)NNC(=O)Cc2nc3ccccc3n2C)cc1,> 70.9 µg/mL
22,CCNC(=O)C(=O)Nc1cc2c3c(c1)CCC(=O)N3CCC2,> 45.2 µg/mL
23,CCN(CC)c1ccc(NC(=O)C2CCCC2)cc1,35.4 µg/mL
24,COc1ccc(NC(=O)COC(=O)CCSc2ccccc2)cc1,10.6 µg/mL

row,Structure (SMILES),solubility kinetic
1,Cc1ccc(CC(=O)NC2CCN(Cc3ccccc3)CC2)cc1,41.7 µg/mL
2,O=C(O)c1ccc(N=Nc2c(-c3ccccc3)[nH]oc2=O)cc1,> 46.4 µg/mL
3,COCCNc1nc(-c2ccccc2)nc2c1oc1ccccc12.Cl,4.6 µg/mL
4,S=C(NCc1ccccc1)N1CCn2cccc2C1c1ccncc1 (centres undefined),45.2 µg/mL
5,CC(=O)N=c1c(C#N)cc2c(=O)n3cccc(C)c3nc2n1Cc1ccco1,5.1 µg/mL
6,CC(C)(C)OC(=O)NC1CC2CCCC(C1)N2Cc1ccccc1 (centres undefined),> 49.6 µg/mL
7,Cc1cc(C)cc(N(CC(=O)N2CCCCCC2)S(C)(=O)=O)c1,48.5 µg/mL
8,COc1ccc(C(=O)NCCn2cc(SCC(N)=O)c3ccccc32)cc1,50.6 µg/mL
9,CC1CC(C)CN(C(=O)CNS(=O)(=O)c2cccs2)C1 (centres undefined),17.6 µg/mL
10,CC1=CC(=C(C#N)C#N)C=C(C)N1CCN1CCNCC1,> 42.5 µg/mL
11,NC(=O)COc1c(-c2ccc(Br)o2)oc2ccccc2c1=O,11.1 µg/mL
12,CC1C(=O)Nc2ccccc2N1C(=O)c1ccc(O)cc1 (centres undefined),> 42.3 µg/mL
13,Cc1ccc(C(=O)NCc2ccco2)o1,> 30.8 µg/mL
14,O=C(CSc1ccccc1F)NCC(c1cccs1)N1CCOCC1 (centres undefined),> 57.1 µg/mL
15,CC(NC(=O)NC(=O)c1cccc(Cl)c1)c1ccccc1 (centres undefined),0.9 µg/mL
16,Cc1noc(C)c1COc1ccc(C(=O)N2CCN(S(=O)(=O)c3cccc(F)c3)CC2)cc1,25.1 µg/mL
17,Cc1cc(CNC(=O)c2ccc(C)c([N+](=O)[O-])c2)c2ccccc2n1,20.1 µg/mL
18,C[N+](C)(C)CC#CCOC(=O)Nc1cccc(Cl)c1.[Cl-],> 47.6 µg/mL
19,Cc1ccccc1CSCC(=O)Nc1ccccc1F,27.9 µg/mL
20,CC(C)(C)OC(=O)N1CCC[C@@H]1CO,> 30.2 µg/mL
21,CCCCn1c(O)c(C(C)=Nc2ccc3c(c2)CCC3)c(=O)[nH]c1=O,< 0.2 µg/mL
22,CCn1ccnc1CN(C)Cc1nc(-c2cccc(Cl)c2)no1,37.8 µg/mL
23,O=C(NCc1ccccn1)Nc1cccc([N+](=O)[O-])c1,> 40.8 µg/mL
